Experimental data: PMC9727977, “Pharmacokinetics and pharmacodynamics of bioactive compounds in Penyanqing preparation in THP-1 inflammatory cells induced by Lipopolysaccharide” (BMC Complementary Medicine and Therapies, 2022)
Read-outs that look alike come from different tables or passages of the source.

How the values were obtained:
[1] = Stability of the analytes in rat plasma QC samples under different storage conditions; assay type: in vitro ADME
Protocol: QC samples were […], 50, 125, 400 ng/mL for FE, 20, 100, 400 ng/mL for PRO, 100, 200, 500 ng/mL for CH, 100, 200, 500 ng/mL for PE, 200, 400, 800 ng/mL for SAB respectively. All the stock solutions, working solutions and QC samples were stored at 4 ℃ until use. […] The stability of all QC samples was determined by the freshly calibration curve.

[2] = Pharmacokinetics of six compounds in rat plasma after oral administration of PYQ (HPLC-MS/MS); assay type: in vivo, Sprague–Dawley rats; conditions: for CL/F: n = 6, read-out: CLz/F (converted); for Vd/F: n = 6, read-out: Vz/F; for AUC(0-inf) / AUC(0-t) / AUC(0-∞): non-compartmental; for MRT: read-out: mean residence time (MRT)
Protocol: Animal experiments referred to our previous manuscript. Female Sprague–Dawley rats (n = 10), weighing 200 ± 20 g, were purchased from the Experimental Animal Center of Southern Medical University (Guangzhou, China). These rats were kept adaptively for one week before the experiment, with a temperature of 23 ± 2 ℃, humidity of 40 ± 5%, 12 h light/dark cycle, and random-fed with water and food available. The rats were fasted overnight before administration.
In our previous study, three different doses (5, 10, and 20 mL/kg/day) of PYQ were used to explore the pharmacodynamic effects of it. According to the clinical dose, the PYQ was orally administered to rats at a dose of 8 mL/kg in this experiment. The plasma of 500 µL was obtained via the retinal venous plexus at 0.083, 0.25, 0.5, 0.75, 1, 2, 4, 8, 12 and 24 h after gavage administration. Then all samples were centrifuged at 4 ℃ for 5 min at 8,000 rpm, and were stored at -80 ℃ in refrigerator until further analysis.
For the pharmacokinetic study of PRO, PE, AST, FE, and CH, 100 µL plasma sample was mixed with 10 µL internal standard (IS, 2 µg/mL naringin), and 700 µL methanol was added for protein sedimentation. The mixture was vortexed for 6 min and centrifuged at 13, 000 rpm for 15 min at 4 ℃. Next, the supernatant was dried in a vacuum drying oven and vortexed with 100 µL of 50% methanol for 6 min, and then the mixture was centrifuged at 13, 000 rpm for 30 min at 4 ℃, and the supernatant was filtered by 0.22 µM filter membrane for HPLC–MS/MS analysis.
For the pharmacokinetic study of SAB, 100 µL plasma was mixed with 10 µL IS (2 µg/mL naringin) and then acidified by mixing with 25 µL of 20% hydrochloric acid. After addition of 1 mL of ethyl acetate, the mixture was vortexed for 6 min and centrifuged at 13,000 rpm for 15 min. The organic layer was transferred to an Eppendorf tube and dried in a vacuum drying oven. The residue was dissolved in 100 µL methanol. After centrifugation at 13,000 rpm for 30 min, the supernatant was filtered by 0.22 µM filter membrane for HPLC–MS/MS analysis.
In this study, the negative ESI multiple reaction monitoring (MRM) mode of AB Sciex API-4000 LC–MS/MS Systems was used to measure SAB, PRO, PE, AST, FE, and CH in rat plasma, respectively. The following setups of the analyzers were used: the temperatures were all 500 ℃; GS1, 55 psi; GS2, 55 psi; curtain gas, 10 psi.
For the chromatographic analysis of PRO, PE, AST, FE, and CH, the chromatographic column used was Agilent Poroshell 120 EC-C18 (100 mm × 3.0 mm, 2.7 µm), and the column temperature was maintained at 25 ℃. The mobile phase was consisted of A (methanol) and B (0.2% aqueous formic acid), and the flow rate was 0.4 mL/min. The gradient elution was carried out as follows: 10% A at 0 ~ 1 min, 10% A-95% A at 1 ~ 2 min, 95% A at 2 ~ 5 min, 95% A-10% A at 5 ~ 5.1 min, 10% A at 5.1 ~ 6 min. 5 µL sample was injected into the system for analysis.
For the chromatographic analysis of SAB, the chromatographic column used was ZORBAX SB-C18 (100 mm × 2.1 mm, 3.5 µm), and the column temperature was maintained at 25 ℃. The mobile phase was consisted of A (methanol) and B (0.2% aqueous formic acid), and the flow rate was 0.4 mL/min. The gradient elution was carried out as follows: 30% A at 0 ~ 0.5 min, 30% A-90% A at 0.5 ~ 1 min, 90% A at 1 ~ 4.5 min, 90% A-30% A at 4.5 ~ 4.6 min, 30% A at 4.6 ~ 6 min. 5 µL sample was injected into the system for analysis.
The pharmacokinetic parameters were calculated by non-compartmental model of the DAS 2.0 software package. The data were presented as mean ± standard deviation (SD). Statistical calculations were performed using SPSS statistical software, and a value of p < 0.05 was denoted statistically significant difference.

[3] = high QC level, nominal ng/mL: AST 500, FE 400, PRO 400, CH 500, PE 500, SAB 800, n = 6
[4] = low QC level, nominal ng/mL: AST 100, FE 50, PRO 20, CH 100, PE 100, SAB 200, n = 6
[5] = middle QC level, nominal ng/mL: AST 200, FE 125, PRO 100, CH 200, PE 200, SAB 400, n = 6
[6] = female, Sprague-Dawley, po, PYQ orally 8 mL/kg, mean ± SD, n = 6
[7] = female, Sprague-Dawley, po, PYQ orally 8 mL/kg, mean ± SD
[8] = female, Sprague-Dawley, po, PYQ orally 8 mL/kg, mean ± SD, n = 6, read-out: Cmax
[9] = female, Sprague-Dawley, po, PYQ orally 8 mL/kg, mean ± SD, n = 6, read-out: tmax
[10] = female, Sprague-Dawley, po, PYQ orally 8 mL/kg, mean ± SD, n = 6, read-out: AUC(0-t)
[11] = female, Sprague-Dawley, po, after PYQ administration
[12] = PYQ orally 8 mL/kg, mean ± SD, n = 6

Row | Compound | In 56 ℃ for 1 h measured value [1, 3] | Room temperature 24 h measured value [1, 3] | Three freeze-thaw cycles measured value [1, 3] | In 56 ℃ for 1 h measured value [1, 4] | Room temperature 24 h measured value [1, 4] | Three freeze-thaw cycles measured value [1, 4] | In 56 ℃ for 1 h measured value [1, 5] | Room temperature 24 h measured value [1, 5] | Three freeze-thaw cycles measured value [1, 5] | half-life [2, 6] [h] | CL/F [2, 7] [mL/min/kg] | Cmax [2, 8] [ng/mL] | Vd/F [2, 7] [L/kg] | Tmax [2, 9] [h] | AUC(0-inf) [2, 6] [ng·h/mL] | AUC(0-t) [2, 10] [ng·h/mL] | MRT [2, 11] [h] | Cmax [2, 12] [ng/mL] | Tmax [2, 12] [h] | t1/2 [2, 12] [h] | other results
1 | C[C@@H]1O[C@@H](O[C@H]2C(=O)c3c(O)cc(O)cc3O[C@@H]2c2ccc(O)c(O)c2)[C@H](O)[C@H](O)[C@H]1O [AST, astilbin] | 495.21 ± 8.43 | 498.07 ± 3.95 | 497.15 ± 6.61 | 98.46 ± 2.77 | 99.68 ± 2.31 | 97.89 ± 4.06 | 194.85 ± 6.53 | 199.01 ± 3.99 | 193.37 ± 7.61 | 3.42 ± 0.34 | 159 | 2270 ± 350 | 45.4 ± 6.31 | 0.25 | 2090 ± 200 | 2080 ± 200 | ≤ 3 |  |  |  | 
2 | salvianolic acid B [SAB] | 791.11 ± 5.98 | 792.27 ± 3.94 | 790.71 ± 3.52 | 196.22 ± 3.40 | 208.88 ± 8.46 | 194.10 ± 8.56 | 395.20 ± 10.70 | 391.06 ± 6.16 | 388.99 ± 6.75 |  |  |  |  |  |  |  |  | 1590 ± 330 | 0.29 ± 0.10 | 7.60 ± 3.34 | CLz/F [2, 12]: 91.3 ± 11.3 mL/min/kg; Vz/F [2, 12]: 59.83 ± 25.48 L/kg; AUC(0-t) [2, 12]: 3400 ± 450 ng·h/mL; AUC(0-∞) [2, 12]: 3700 ± 460 ng·h/mL; mean residence time (MRT) ([2]; after PYQ administration): 5.67 ± 0.66 h
3 | C[C@@]12C[C@@]3(O)O[C@@H](O1)[C@]1(COC(=O)c4ccccc4)[C@H]3C[C@@]12O[C@@H]1O[C@H](CO)[C@@H](O)[C@H](O)[C@H]1O [PE, paeoniflorin] | 495.87 ± 6.50 | 499.23 ± 2.58 | 492.85 ± 7.60 | 95.32 ± 1.06 | 99.44 ± 2.43 | 99.68 ± 2.83 | 196.25 ± 4.08 | 199.64 ± 2.59 | 197.55 ± 3.60 |  | 153 | 2040 ± 590 | 31.3 ± 4.08 | 0.25 | 2220 ± 310 | 2210 ± 310 | ≤ 3 |  |  | 2.37 ± 0.20 | 
4 | O=Cc1ccc(O)c(O)c1 [PRO, protocatechualdehyde] | 394.26 ± 8.01 | 398.27 ± 4.21 | 395.66 ± 7.14 | 19.88 ± 0.43 | 20.81 ± 0.85 | 20.62 ± 1.06 | 98.21 ± 2.33 | 100.34 ± 1.48 | 97.77 ± 2.49 | 0.93 ± 0.06 | 310 | 1430 ± 220 | 24.9 ± 1.96 |  | 1080 ± 70 | 1050 ± 60 | ≤ 3 |  |  |  | Tmax ([2]; female, Sprague-Dawley, in vivo, po, PYQ orally 8 mL/kg, mean ± SD, n = 6, read-out: tmax): 0.25 h
5 | O=C(/C=C/c1ccc(O)c(O)c1)O[C@@H]1C[C@](O)(C(=O)O)C[C@@H](O)[C@H]1O [CH, chlorogenic acid] | 489.60 ± 8.91 | 499.00 ± 6.02 | 485.90 ± 9.73 | 97.22 ± 3.31 | 99.91 ± 2.94 | 98.55 ± 2.93 | 195.56 ± 7.88 | 200.03 ± 9.56 | 191.77 ± 8.91 | 1.86 ± 0.21 | 356 |  | 57.2 ± 7.48 |  |  | 920 ± 60 | ≤ 3 | 1370 ± 60 |  |  | AUC(0-∞) [2, 12]: 940 ± 90 ng·h/mL
6 | COc1cc(/C=C/C(=O)O)ccc1O [FE, ferulic acid] | 399.13 ± 3.26 | 403.59 ± 7.84 | 400.59 ± 6.95 | 48.33 ± 2.76 | 49.14 ± 2.35 | 49.41 ± 1.85 | 123.42 ± 1.76 | 122.72 ± 2.65 | 124.36 ± 2.46 | 0.9 ± 0.02 | 230 | 1200 ± 150 | 17.9 ± 3.28 |  | 1480 ± 240 | 1430 ± 230 | ≤ 3 |  | 0.25 ± 0 |  | 
